Assay results: ChEMBL document CHEMBL1123660 (J Med Chem, 1987)

Assays:
[1] = tested on: Platelet-activating factor receptor (Oryctolagus cuniculus); assay: Percent inhibition of [3H]PAF to platelet-activating factor (PAF) receptor from rabbit platelet membranes at; settings: concentration not given here
[2] = species: Oryctolagus cuniculus; assay: PAF antagonism was determined by rabbit platelet inhibition and neurophil aggregation and degranulation at 0.1 to 1 uM concentration.; type: functional

Row | inhibition [1] | SMILES | Ki [2]
1 | 61% | CCCC1=C[C@]2(OC)C(=CC1=O)O[C@H](c1ccc(OC)c(OC)c1)[C@H]2C | 
2 |  | C=CCC1=C[C@@]2(OC)C(=CC1=O)O[C@H](c1ccc(OC)c(OC)c1)[C@H]2C (stereo in doubt) [KADSURENONE] | 58 nM
